In patent US20090062537A1, “N-Formyl Hydrozyamine Compounds” (priority 2006, published 2009):
Residue numbers refer to the chain shown, from its start. ≈ marks a conversion by molar mass, not a printed value.

Key:
[1] = target: T1, Streptococcus pneumoniae peptide deformylase G70D mutant (Streptococcus pneumoniae serotype 4, UniProt Q9F2F0, G70D); experiment: Inhibition of S. pneumoniae peptide deformylase activity, G70D mutant enzyme; format: biochemical; conditions: PDF G70D
T1 sequence (Q9F2F0 1-203 G70D): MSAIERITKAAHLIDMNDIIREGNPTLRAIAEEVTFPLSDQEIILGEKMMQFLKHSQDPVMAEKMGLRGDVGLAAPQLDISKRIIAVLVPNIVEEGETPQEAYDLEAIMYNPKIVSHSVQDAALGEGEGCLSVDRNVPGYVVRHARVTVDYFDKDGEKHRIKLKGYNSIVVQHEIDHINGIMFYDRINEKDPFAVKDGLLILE
Procedure: (§1) A PDF/FDH coupled assay (Lazennec et al., Anal. Biochem., Vol. 224, pp. 180-182 (1997)) is used. In this coupled assay, the formate released by PDF from its substrate fMAS is oxidized by the coupling enzyme FDH, reducing one molecule of NAD^+ to NADH, which causes an increase in absorption at 340 nm. All assays are carried out at room temperature in a buffer of 50 mM HEPES, pH 7.2, 10 mM NaCl, 0.2 mg/mL BSA, In half-area 96-well microtiter plates (Corning). The reaction is initiated by adding a mixture of 0.5 Unit/mL FDH, 1 mM NAD^+, and fMAS at the desired concentration. To determine IC50 (the concentration needed to inhibit 50% of enzyme activity) values, PDF is pre-incubated for 10 minutes with varying concentrations of the inhibitor, and the deformylation reaction is initiated by the addition of reaction mixture containing 4 mM fMAS. The initial reaction velocity, y, is measured as the initial rate of absorption increase at […] using a SpectraMax plate reader (Molecular Devices, Sunnyvale, Calif.). The Inhibitor concentration [In] at which 50% of the enzyme activity is inhibited, IC50, is calculated using the following formula:
(§2) where yo is the reaction velocity in the absence of inhibitor. Solving this equation for IC50 at the [In] when y=yo/2 yields IC50. The IC50 is calculated based on a nonlinear least-square regression fit using a commercial software package (Deltapoint, Inc., Chicago, Ill.).
(§3) Peptide deformylase activity is essential for growth of S. pneumoniae. The mutants that are selected on NVP-LBM415 were not compromised for growth in vitro, therefore the mutations in defB that confer resistance to these compounds would not be expected to dramatically alter enzymatic activity. To test this hypothesis, the kinetics of peptide deformylase activity are determined using the substrate f-Met-Ala-Ser.
(§4) To investigate further, the IC50s and MICs of specific pairs of compounds differing only in this feature are determined.

[2] = target: T2, Streptococcus pneumoniae peptide deformylase G70V mutant (Streptococcus pneumoniae serotype 4, UniProt Q9F2F0, G70V); experiment: Inhibition of S. pneumoniae peptide deformylase activity, G70V mutant enzyme; format: biochemical; conditions: PDF G70V
T2 sequence (Q9F2F0 1-203 G70V): T1 sequence (Q9F2F0 1-203 G70D) with D70V
Procedure: as §1, §2, §3, §4

[3] = tested on: Streptococcus pneumoniae PDF G70D mutant; experiment: MIC, culture growth of S. pneumoniae PDF G70D mutant; format: cell-based; conditions: PDFG70DMUTANT
Procedure: (§5) Minimum inhibitory concentrations (MICs) are determined using the microdilution method In 96-well format plates. Compounds are suspended in DMSO at 5 or 10 mg/mL and stored at 4° C. until used. They are diluted in Mueller-Hinton Broth (MHB) or Trypticase Soy Broth (TSB) and used for MIC determination. The range of concentrations tested is 64-0.0625 μg/mL final concentration using a two-fold dilution system.
(§6) The inoculum is prepared from cells grown on Trypticase Soy Agar (TSA) and incubated overnight at 35° C., 5-10 colonies are used to inoculate MHB or TSB broths, and the culture is incubated overnight at 35° C. The overnight culture is diluted 1:10, incubated for 1 hour at 35° C., diluted to the appropriate inoculum size and applied to the wells containing broth and test compound. Inoculum sizes are 2×10^4 CFU/mL.
as §4

[4] = tested on: Streptococcus pneumoniae (wild type PDF); experiment: MIC, culture growth of S. pneumoniae with wild type PDF; format: cell-based; conditions: PDF W.T.
Procedure: as §5, §6, §4

[5] = tested on: Streptococcus pneumoniae PDF G70V mutant; experiment: MIC, culture growth of S. pneumoniae PDF G70V mutant; format: cell-based; conditions: PDFG70VMUTANT
Procedure: as §5, §6, §4

[6] = target: T3, Streptococcus pneumoniae peptide deformylase, wild type (W.T.) (Streptococcus pneumoniae serotype 4, UniProt Q9F2F0); experiment: Inhibition of S. pneumoniae peptide deformylase activity, wild type enzyme; format: biochemical; conditions: PDF W.T.
T3 sequence (Q9F2F0 1-203): T1 sequence (Q9F2F0 1-203 G70D) with D70G
Procedure: as §1, §2, §3, §4

| SMILES | IC50 [1] [nM] | IC50 [2] [nM] | MIC [3] [µg/mL] | MIC [4] [µg/mL] | MIC [5] [µg/mL] | IC50 [6] [nM] |
| --- | --- | --- | --- | --- | --- | --- |
| O=CN(O)C[C@@H](CC1CCCC1)C(=O)N1C[C@H](F)C[C@H]1C(=O)Nc1cnccn1 | 0.34 | 0.5 | 0.25 (≈ 0.614 µM) | 0.16 ± 0.1 (≈ 0.393 µM) | 0.33 (≈ 0.81 µM) | 0.25 ± 0.04 |
| O=CN(O)C[C@@H](CC1CCCC1)C(=O)N1C[C@H](F)C[C@H]1C(=O)Nc1cncc[n+]1[O-] | 0.91 | 2.05 | 1 (≈ 2.36 µM) | 0.29 ± 0.11 (≈ 0.685 µM) | 2.67 (≈ 6.31 µM) | 0.37 ± 0.02 |
| CCCC[C@H](CN(O)C=O)C(=O)N1C[C@H](C(C)C)C[C@H]1C(=O)Nc1ccc(F)cn1 | 0.25 | 0.7 | 1.07 (≈ 2.53 µM) | 0.71 ± 0.1 (≈ 1.68 µM) | 1.43 (≈ 3.38 µM) | 0.27 ± 0.03 |
| CCCC[C@H](CN(O)C=O)C(=O)N1C[C@H](C(C)C)C[C@H]1C(=O)Nc1ccc(F)c[n+]1[O-] | 1.19 | 1.56 | 5.14 (≈ 11.7 µM) | 0.64 ± 0.09 (≈ 1.46 µM) | 6.3 (≈ 14.4 µM) | 0.31 ± 0.03 |
| CCCC[C@H](CN(O)C=O)C(=O)N1C[C@@H](C(C)C)C[C@H]1C(=O)Nc1ccc(F)cn1 | 0.46 | 1.01 | 1.57 (≈ 3.72 µM) | 1.43 ± 0.2 (≈ 3.38 µM) | 2.86 (≈ 6.77 µM) | 0.31 ± 0.04 |
| CCCC[C@H](CN(O)C=O)C(=O)N1C[C@@H](C(C)C)C[C@H]1C(=O)Nc1ccc(F)c[n+]1[O-] | 1.38 ± 0.78 | 1.78 | 10.3 (≈ 23.4 µM) | 1.42 ± 0.2 (≈ 3.24 µM) | 10.3 (≈ 23.5 µM) | 0.23 ± 0.04 |
| CCCC[C@H](CN(O)C=O)C(=O)N1CCC[C@H]1C(=O)Nc1ccc(F)c[n+]1[O-] [reference compound] | 1.28 | 1.35 | 6.44 (≈ 16.2 µM) | 0.45 ± 0.07 (≈ 1.14 µM) | 5.8 (≈ 14.6 µM) | 0.31 ± 0.03 |
